Assay results: PubChem BioAssay AID1259418 (Broad Institute, 2018)
“And” between values parts separate entries of the source, which are not always exact repeats. Identical values can stand only once. Results filed as inconclusive are left out. The source made the active and inactive calls.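 Rule for the calls: active = fitted half-maximal concentration of signal decrease at or below twice the sample's top tested concentration; inconclusive = flat curve between -70 and -30 percent, or poor fit; inactive = flat within 30 percent, signal rise, or potency above limit.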

Target: T. gondii ME49Luc in IFN-y HeLa, luciferase, 72 h
Assay: T. gondii growth inhibition with IFN-gamma, dose response, cell-based, ME49Luc, HeLa, luciferase, 72 h (AID 1259418)

## COc1cccc(S(=O)(=O)N2CCCCN3[C@H](CO)[C@@H](c4ccc(C#CCC(C)C)cc4)[C@H]3C2)c1
  AC50: 24.9 µM and 10.3 µM and 9.5 µM

## CCOC(=O)Cn1c(C)c(CN2CCCC2c2cc(C(C)C)no2)c2ccccc21 (configuration not stated)
  AC50: 15.5 µM

## CCc1ccc(S(=O)(=O)N2CCC3(CC2)NCCN=C3NCc2ccccc2)cc1
  AC50: 21.8 µM

## Clc1ccc(CNc2nc(SCc3cccc(Cl)c3)nc3ccccc23)cc1
  AC50: 5.24 µM

## N#C[C@@H]1[C@@H](c2ccc(C#Cc3cccnc3)cc2)[C@@H](CO)N1C(=O)NC1CCCCC1
  AC50: 13.6 µM

## O=C(CC1Nc2c3ccccc3nc(=S)n2C1=O)NCc1ccccc1Cl (configuration not stated)
  AC50: 28.7 µM

## Cc1cccc(CNC2=NCCNC23CCN(S(=O)(=O)c2ccc4c(c2)CCCC4)CC3)c1
  AC50: 5.08 µM

## COc1cc(OC)cc(C(=O)N2CCC3(CC2)Nc2cc(OC)ccc2-n2cccc23)c1
  AC50: 30.1 µM

## COc1ccc(-c2ccc3c(c2)[C@H]2[C@H](CCN2C(=O)c2cccc(F)c2)[C@H](CO)N3)cc1
  AC50: 16 µM

## Cc1cc(C)cc(S(=O)(=O)N2CCC3(CC2)NCCN=C3NCc2ccc(C(F)(F)F)cc2)c1
  AC50: 6.65 µM

## CCOc1ccc(-c2nc(CN3CCN(C(=O)Nc4cc(OC)ccc4OC)CC3)c(C)o2)cc1
  AC50: 38 µM

## O=C(NCc1ccccc1)C1CC2(CO1)CN(C(=O)c1ccc(F)cc1)c1ccccc12 (configuration not stated)
  AC50: > 39 µM (inactive)

## Fc1ccc(Nc2nc(SCc3ccc(Cl)cc3)nc3ccccc23)cc1F
  AC50: 17.3 µM

## O=C(Cc1ccncc1)N1CCCCN2[C@H](CO)[C@H](c3ccc(C#Cc4ccccc4F)cc3)[C@H]2C1
  AC50: 20 µM

## O=S(=O)(c1ccc2c(c1)CCCC2)N1CCC2(CC1)NCCN=C2NCc1ccc2c(c1)OCO2
  AC50: 11.1 µM

## CN1C(=O)CCc2cc(NC(=O)Cc3ccc(Cl)cc3)ccc21
  AC50: 23.8 µM

## Cc1cnn(C(C)C(=O)N2CCc3[nH]nc(-c4ccc(F)c(F)c4)c3C2)c1 (configuration not stated)
  AC50: > 20 µM (inactive)

## O=C(Cc1ccncc1)N1CCCCN2[C@H](C1)[C@@H](c1ccc(C#Cc3ccccc3F)cc1)[C@@H]2CO
  AC50: 5.02 µM

## CC(C)NC(=O)N1CC(=O)N2[C@H](CO)[C@@H](c3ccc(/C=C/c4ccccc4)cc3)[C@H]2C1
  AC50: 26.5 µM and 8.87 µM

## O=C(CC1N=C2c3ccccc3N=C(SCc3ccccc3F)N2C1=O)NCc1cccs1 (configuration not stated)
  AC50: 18.4 µM

## COc1ccccc1-c1ccc([C@@H]2[C@H](CO)N3CCCCN(C(=O)c4cccnc4)C[C@@H]23)cc1
  AC50: 17.2 µM

## CN(C)C(=O)c1ccc(-c2ccc3c(c2)[C@@H]2[C@@H](CCN2C(=O)C2CCCC2)[C@H](CO)N3C)cc1
  AC50: 20.6 µM

## Cc1ccccc1-c1ccc(C2[C@@H]3CN(C(=O)C4CCOCC4)C[C@H]2N3)cc1 (some centres not stated)
  AC50: 26.4 µM

## COc1ccc(-c2nc(CN(c3ccccc3)S(=O)(=O)c3ccccc3)c(C)o2)cc1
  AC50: 9.08 µM

## COc1ccc(C#Cc2ccc([C@@H]3[C@@H](CO)N4C(=O)CN(C(=O)NC(C)C)C[C@@H]34)cc2)cc1
  AC50: 20.4 µM

## COc1ccccc1Cn1ncc2c1CCCC2NC(=O)c1cc(-c2cccs2)no1 (configuration not stated)
  AC50: 14.1 µM

## C1=CC[C@H]2CN(c3ncnc4[nH]ccc34)C[C@H]2C1
  AC50: 13.1 µM

## CCc1ccccc1S(=O)(=O)N1CCC(C(=O)NCCc2csc(-c3ccccc3)n2)CC1
  AC50: 17.5 µM

## CS(=O)(=O)N1CCC(C(=O)NCCc2csc(-c3cccs3)n2)CC1
  AC50: > 39 µM (inactive)

## COc1cc(CN2C[C@@H]3N[C@H](C2)C3c2ccc(-c3ccc(C#N)cc3)cc2)cc(OC)c1 (some centres not stated)
  AC50: 6.02 µM and 7.29 µM and 16.7 µM

## CC(C)C#Cc1ccc([C@@H]2[C@@H](CO)N3C(=O)CN(S(=O)(=O)c4ccccc4)C[C@H]23)cc1
  AC50: 19.2 µM

## Cc1oc(-c2cccc(Cl)c2)nc1CN(c1ccccc1)S(=O)(=O)c1cccs1
  AC50: 10.4 µM

## Cc1ccc(C(=O)N2CCC3(CC2)Nc2ccc(Cl)cc2-n2cccc23)cc1F
  AC50: > 39 µM (inactive)

## COc1ccc(-c2nc(NCCc3ccc(OC)c(OC)c3)c3ccccc3n2)cc1
  AC50: 17.4 µM

## O=C(NCCCN1CCCC1)C1CCN(Cc2cc3ccccc3n2Cc2ccccc2Cl)CC1
  AC50: 25.8 µM

## COc1ccc(C#Cc2ccc([C@@H]3[C@H]4CN(C(=O)NC(C)C)CC(=O)N4[C@H]3CO)cc2)cc1
  AC50: 9.33 µM and 7.45 µM

## Cc1cccc(CNC2=NCCNC23CCN(S(=O)(=O)c2cc(C)cc(C)c2)CC3)c1
  AC50: 25.7 µM

## Cc1sc2ncnc(Oc3ccc(OCc4ccccc4)cc3)c2c1C
  AC50: 7.63 µM and 8.8 µM

## O=C(NCCc1csc(-c2ccccc2)n1)C1CCN(C(=O)c2ccco2)CC1
  AC50: > 39 µM (inactive)

## CCOc1ccc(-c2nc(CN(c3ccccc3)S(=O)(=O)c3cccs3)c(C)o2)cc1
  AC50: 15.2 µM

## COCCNc1nc(-c2ccc(OC)cc2)nc2ccccc12
  AC50: 18.4 µM

## Cc1cccc(-c2nc(CSc3nc4c(c(=O)[nH]3)CN(Cc3ccccc3)CC4)c(C)o2)c1
  AC50: > 39 µM (inactive)

## COc1ccccc1N(Cc1nc(-c2ccc(C)cc2)oc1C)S(=O)(=O)c1ccc(C)cc1
  AC50: 10.3 µM

## O=C(Nc1cccc(F)c1)N1CCCCN2[C@H](CO)[C@@H](c3ccc(C#Cc4cccnc4)cc3)[C@H]2C1
  AC50: 19.1 µM

## O=C(CC1N=C2c3ccccc3N=C(SCc3cccc(Cl)c3)N2C1=O)NCCc1ccccc1 (configuration not stated)
  AC50: 19.3 µM

## COc1ccc(CNC2=NCCNC23CCN(S(=O)(=O)c2ccc(CC(C)C)cc2)CC3)cc1
  AC50: 6.46 µM

## CCc1nc(OCC(=O)NCc2ccccc2)c2ccccc2n1
  AC50: 21.9 µM

## Cc1cc(C2CCCN2C(=O)Cn2nc(C(F)(F)F)c3c2CCCC3)no1 (configuration not stated)
  AC50: 34.3 µM

## COc1ccc(-c2nc(Cn3nnc(-c4nc(-c5ccc(OC)c(OC)c5)no4)c3C)c(C)o2)cc1
  AC50: 20.6 µM

## Cc1ccc(N(Cc2nc(-c3cccc(Cl)c3)oc2C)S(=O)(=O)c2cccs2)cc1
  AC50: 5.3 µM and 7.96 µM

## Cc1ccc(-c2nc(CN3CCN(C(=O)Nc4ccccc4)CC3)c(C)o2)cc1
  AC50: 17.5 µM

## O=C(c1ccc(-n2nc(C(F)(F)F)c3c2CCCC3)cc1)N1CCN(C2CCCCC2)CC1
  AC50: 10.1 µM and > 39 µM (inactive)

## O=C(c1cccc(F)c1)N1CC(=O)N2[C@H](CO)[C@H](c3ccc(/C=C/c4ccccc4)cc3)[C@@H]2C1
  AC50: 19.6 µM

## O=C(CCC1N=C2c3ccccc3N=C(SCc3ccccc3F)N2C1=O)NCc1cccs1 (configuration not stated)
  AC50: 22.4 µM

## CC(C)CC#Cc1ccc([C@@H]2[C@@H](CO)N3C(=O)CN(C(=O)c4cccc(F)c4)C[C@@H]23)cc1
  AC50: 15 µM and 9.46 µM

## CC(C)Cc1ccc(S(=O)(=O)N2CCC3(CC2)NCCN=C3NCc2ccc3c(c2)OCO3)cc1
  AC50: 5.76 µM

## COc1cccc(S(=O)(=O)N2CCCCN3[C@H](CO)[C@H](c4ccc(C#CCC(C)C)cc4)[C@@H]3C2)c1
  AC50: 13.6 µM and 2.35 µM

## Nc1ncnc2c1ncn2[C@@H]1O[C@H](C[C@@H](N)CC[C@H](N)C(=O)O)[C@@H](O)[C@H]1O
  AC50: 0.907 µM

## CCN(CC)CCO[C@H]1CC[C@@]2(C)C(=CC[C@@H]3[C@@H]2CC[C@]2(C)C(=O)CC[C@@H]32)C1
  AC50: 12 µM

## COc1cc([C@@H]2c3cc4c(cc3C(OC3OC5COC(C)OC5C(O)C3O)C3OCC(=O)[C@@H]32)OCO4)cc(OC)c1O (some centres not stated)
  AC50: 8.96 µM

## COc1cccc(NC(=O)N2CC(=O)N3[C@H](CO)[C@H](c4ccc(C#CCC5CCCC5)cc4)[C@H]3C2)c1
  AC50: 12.8 µM and 10.5 µM

## COc1ccc(CNC(=O)CC2N=C3c4ccccc4N=C(SCc4ccc(F)cc4)N3C2=O)cc1 (configuration not stated)
  AC50: 22.6 µM

## Cc1nc2c(cnn2-c2ccccc2)c(=O)n1-c1cccc2ccccc12
  AC50: 1.32 µM

## Cc1ccccc1-c1nc(CN2CCN(C(=O)Nc3ccc(F)cc3)CC2)c(C)o1
  AC50: > 39 µM (inactive)

## O=C(CCc1ccccc1)N1CCC2(CC1)Nc1ccc(Cl)cc1-n1cccc12
  AC50: 27.4 µM

## C(=C\c1ccc(C2[C@H]3CNC[C@@H]2N3CC2CCOCC2)cc1)/c1ccccc1 (some centres not stated)
  AC50: 26.3 µM

## Cc1csc(-c2cc(S(=O)(=O)NCCCN3CCC(C)CC3)c(C)s2)n1
  AC50: > 39 µM (inactive)

## COc1ccc(OC)c(S(=O)(=O)N2CCc3c([nH]c4ccccc34)C2c2cc(F)ccc2F)c1 (configuration not stated)
  AC50: > 39 µM (inactive)

## CCOc1ccccc1-c1nc(CN(c2ccc(OC)cc2)S(=O)(=O)c2ccc(C)cc2)c(C)o1
  AC50: 10.7 µM

## COCCN(C)C(=O)c1cc(-c2ccn(-c3ccc(OC)cc3)n2)n2ccccc12
  AC50: 22.3 µM

## COc1ccc(-c2nc(CN(c3ccccc3OC)S(=O)(=O)c3ccc(OC)cc3)c(C)o2)cc1
  AC50: 5.84 µM

## CCc1nc(OCC(=O)Nc2ccc(C)c(F)c2)c2ccccc2n1
  AC50: 26.6 µM

## COc1cccc(N(Cc2nc(-c3ccccc3)oc2C)S(=O)(=O)c2ccccc2C)c1
  AC50: 5.46 µM

## O=C(c1ccc(F)cc1)N1CC(=O)N2[C@H](CO)[C@H](c3ccc(C#CCC4CCCC4)cc3)[C@@H]2C1
  AC50: 14.4 µM and 12 µM

## Cc1ccc(S(=O)(=O)N2CCC3(CC2)NCCN=C3NCc2ccccc2F)cc1C
  AC50: 22.5 µM

## Clc1ccccc1CSc1nc(NCc2ccccc2)c2ccccc2n1
  AC50: > 39 µM (inactive)

## CC(C)Oc1ccc(NC(=O)c2nc3c(n2C(C)C)CCN(C(=O)c2ccccc2)C3)cc1
  AC50: 10.6 µM

## Cc1cccc(-n2ncc3c(NCc4cccc(Cl)c4)ncnc32)c1
  AC50: 24.5 µM

## COc1ccc2c(c1)NC1(CCN(C(=O)c3c(F)cccc3F)CC1)c1cccn1-2
  AC50: > 39 µM (inactive)

## COc1cccc(C#Cc2ccc([C@@H]3[C@H](C#N)N(C(=O)c4ccccn4)[C@H]3CO)cc2)c1
  AC50: 20.7 µM

## O=C(NCCc1csc(-c2ccccc2)n1)[C@H]1CCCN1S(=O)(=O)c1ccc(Cl)s1
  AC50: 12.9 µM

## COc1cc(OC)cc(C(=O)Nc2ccc(-c3nc(-c4ccc(C)cc4C)co3)cc2)c1
  AC50: 29.7 µM

## OC[C@H]1N[C@@H](CNCC2CCC2)[C@@H]1c1ccc(C2=CCCCC2)cc1
  AC50: 12.4 µM and 20.4 µM

## O=C(CC1N=C2c3ccccc3N=C(SCc3ccccc3Cl)N2C1=O)NCCc1ccccc1 (configuration not stated)
  AC50: 15.9 µM

## CC(=O)N(C)C1(c2ccccc2)CCN(CCC[C@]2(c3ccc(Cl)c(Cl)c3)CCCN(C(=O)c3ccccc3)C2)CC1
  AC50: 12 µM

## O=C(CCC1N=C2c3ccccc3N=C(SCc3cccc(Cl)c3)N2C1=O)NCc1cccs1 (configuration not stated)
  AC50: 5.48 µM

## CS(=O)(=O)N1CCc2sc(C(=O)Nc3ccc(Cl)cc3)cc21
  AC50: 3.36 µM

## CO[C@@H]1[C@@H](OC(N)=O)[C@@H](O)[C@H](Oc2ccc3c(O)c(NC(=O)c4ccc(O)c(CC=C(C)C)c4)c(=O)oc3c2C)OC1(C)C
  AC50: 22.2 µM

## CCCCNC(=O)CCC1N=C2c3ccccc3N=C(SCc3ccc(Cl)cc3)N2C1=O (configuration not stated)
  AC50: 17 µM

## CCOc1ccccc1-c1nc(CN(c2ccccc2OC)S(=O)(=O)c2ccccc2C)c(C)o1
  AC50: 8.83 µM

## COc1ccc(NC(=O)N2CCCCN3[C@H](C2)[C@@H](c2ccc(-c4ccccc4F)cc2)[C@@H]3CO)cc1
  AC50: 32.8 µM

## COc1cccc(-c2ccc(C3[C@@H]4CN(Cc5ccccn5)C[C@H]3N4)cc2)c1 (some centres not stated)
  AC50: 15.6 µM
